Here are results for nine molecules from US8633206B2, “Pyrrolo[2,3-D]pyrimidine compounds” (Pfizer Inc., priority 2009, dated 2014).

Broadly, the IC50 is the midpoint of a concentration-inhibition curve.

What all share (assay type): biochemical
In one assay the target is JAK1 (Homo sapiens (Human), UniProt P23458). The experiment in a line: JAK enzymatic assay (peptide mobility shift), JAK1. The settings on record: recombinant JAK1 20 nM, IRS-1 peptide, 240 minutes. The procedure:
(§1) Recombinant JAK1 (Catalog Number PV4775), JAK2 (Catalog Number PV4210) and JAK3 (Catalog Number PV3855) were purchased from (Invitrogen Corporation, Madison, Wis.). […] Adenosine 5′-triphosphate (ATP) was obtained from (Sigma Chemical Company, St. Louis, Mo.). […] Coating Reagent 3 was purchased from (Caliper Life Sciences, Hopkinton, Mass.).
(§2) Compounds were diluted serially in 100% dimethyl sulfoxide and tested in an 11 point dose response in duplicate or quadruplicate (200 nl of compound/DMSO was added per 10 L reaction). […] The assay was run for 240 minutes for JAK1, 150 minutes for JAK2, 90 minutes for JAK3 and 70 minutes for Tyk2. […] The plates were placed on a LabChip 3000 (LC3000) instrument from (Caliper Life Sciences) to measure the formation of phosphorylated peptide. Data was analyzed using Hits Well Analyzer Software from (Caliper Life Sciences) to obtain the amount of product formed.
(§3) Data was then imported into an internal application where each data point is expressed as % inhibition based on uninhibited and no enzyme controls. Dose-response data is then fit using a 4 parameter logistic equation (Equation 1) to determine an IC50.

The next assay deals with JAK3 (Homo sapiens (Human), UniProt P52333). Kind of assay: JAK enzymatic assay (peptide mobility shift), JAK3. The note with it: recombinant JAK3 1 nM, JAKtide peptide, 90 minutes. Here is the method:
as §1, §2, §3

The target of a further assay is JAK2 (Homo sapiens (Human), UniProt O60674). The experiment in a line: JAK enzymatic assay (peptide mobility shift), JAK2. The settings on record: recombinant JAK2 2 nM, JAKtide peptide, 150 minutes.
Sequence of JAK2 (O60674 808-1132): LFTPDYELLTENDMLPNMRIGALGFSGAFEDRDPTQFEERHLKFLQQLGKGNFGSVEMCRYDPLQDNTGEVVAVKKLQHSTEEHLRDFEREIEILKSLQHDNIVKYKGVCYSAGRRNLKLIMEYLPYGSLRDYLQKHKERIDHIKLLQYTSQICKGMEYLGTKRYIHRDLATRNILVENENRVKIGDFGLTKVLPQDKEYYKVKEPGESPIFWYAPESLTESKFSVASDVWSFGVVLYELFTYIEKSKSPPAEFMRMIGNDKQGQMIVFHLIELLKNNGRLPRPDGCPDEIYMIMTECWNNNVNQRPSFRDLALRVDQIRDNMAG
Source text: Recombinant JAK1 (Catalog Number PV4775), JAK2 (Catalog Number PV4210) and JAK3 (Catalog Number PV3855) were purchased from (Invitrogen Corporation, Madison, Wis.). Tyk2 (His-Tyk2 (888-1182, C936S, C1142S)) used in this study was expressed and purified at Pfizer Laboratories. Adenosine 5′-triphosphate (ATP) was obtained from (Sigma Chemical Company, St. Louis, Mo.). […] Coating Reagent 3 was purchased from (Caliper Life Sciences, Hopkinton, Mass.).
A peptide mobility shift assay was used to quantify the phosphorylation of the JAKtide (JAK2 and JAK3) or the IRS-1 peptide (JAK1 and Tyk2). Reactions were carried out in a 384-well plate (Matrical MP-101) in a 10 L total volume. […] Compounds were diluted serially in 100% dimethyl sulfoxide and tested in an 11 point dose response in duplicate or quadruplicate (200 nl of compound/DMSO was added per 10 L reaction). The reactions were initiated by the addition of enzyme to the final concentration of 2 nM JAK2, 1 nM JAK3, 12 nM Tyk2 or 20 nM JAK1. The assay was run for 240 minutes for JAK1, 150 minutes for JAK2, 90 minutes for JAK3 and 70 minutes for Tyk2. The assays were stopped at the specified times with 20 uL of 140 mM HEPES, 22.5 mM EDTA and 0.15% Coating Reagent 3. The plates were placed on a LabChip 3000 (LC3000) instrument from (Caliper Life Sciences) to measure the formation of phosphorylated peptide. Data was analyzed using Hits Well Analyzer Software from (Caliper Life Sciences) to obtain the amount of product formed.
as §3

Sequence of JAK1 (P23458 whole entry): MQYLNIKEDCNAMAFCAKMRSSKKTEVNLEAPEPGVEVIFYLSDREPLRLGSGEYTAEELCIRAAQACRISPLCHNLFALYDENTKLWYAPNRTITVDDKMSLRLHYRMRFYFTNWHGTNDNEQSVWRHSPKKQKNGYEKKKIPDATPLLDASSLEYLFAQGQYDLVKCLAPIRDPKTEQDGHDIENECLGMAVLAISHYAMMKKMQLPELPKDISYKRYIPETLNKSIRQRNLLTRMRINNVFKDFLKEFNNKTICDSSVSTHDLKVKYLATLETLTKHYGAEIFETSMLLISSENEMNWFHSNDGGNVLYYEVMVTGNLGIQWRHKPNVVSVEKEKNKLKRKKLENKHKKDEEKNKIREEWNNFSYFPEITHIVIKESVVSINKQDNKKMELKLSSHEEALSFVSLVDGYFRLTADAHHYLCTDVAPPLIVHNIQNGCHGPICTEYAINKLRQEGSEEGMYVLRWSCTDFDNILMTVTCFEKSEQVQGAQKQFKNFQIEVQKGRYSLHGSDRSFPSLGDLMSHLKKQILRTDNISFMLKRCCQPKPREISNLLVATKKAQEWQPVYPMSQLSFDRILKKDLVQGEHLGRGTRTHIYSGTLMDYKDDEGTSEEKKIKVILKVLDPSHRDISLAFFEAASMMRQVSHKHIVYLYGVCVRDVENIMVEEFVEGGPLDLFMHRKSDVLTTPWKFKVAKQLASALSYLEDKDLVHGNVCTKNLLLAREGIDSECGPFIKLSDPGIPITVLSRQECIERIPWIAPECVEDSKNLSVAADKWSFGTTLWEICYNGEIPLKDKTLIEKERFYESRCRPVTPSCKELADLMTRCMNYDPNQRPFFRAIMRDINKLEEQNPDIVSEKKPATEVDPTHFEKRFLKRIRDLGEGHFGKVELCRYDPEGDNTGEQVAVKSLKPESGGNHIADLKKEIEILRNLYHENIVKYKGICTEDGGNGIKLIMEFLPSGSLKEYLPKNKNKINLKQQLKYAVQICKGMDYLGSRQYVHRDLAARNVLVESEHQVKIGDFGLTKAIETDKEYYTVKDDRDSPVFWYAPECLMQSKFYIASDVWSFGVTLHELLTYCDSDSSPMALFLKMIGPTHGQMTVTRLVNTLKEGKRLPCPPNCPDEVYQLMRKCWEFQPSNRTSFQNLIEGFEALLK
Sequence of JAK3 (P52333 781-1124): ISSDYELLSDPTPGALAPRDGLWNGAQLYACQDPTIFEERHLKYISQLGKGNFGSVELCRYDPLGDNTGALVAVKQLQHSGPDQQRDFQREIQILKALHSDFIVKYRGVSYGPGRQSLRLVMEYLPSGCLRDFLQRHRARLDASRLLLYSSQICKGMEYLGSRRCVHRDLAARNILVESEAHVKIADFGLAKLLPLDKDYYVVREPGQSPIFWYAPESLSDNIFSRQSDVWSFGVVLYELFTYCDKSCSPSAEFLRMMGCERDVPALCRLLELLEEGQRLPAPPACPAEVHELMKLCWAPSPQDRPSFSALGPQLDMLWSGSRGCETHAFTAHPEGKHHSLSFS

With `CN(c1ncnc2[nH]ccc12)[C@H]1CC[C@H](CS(=O)(=O)N2CCC(O)CC2)CC1` [Example 9, 1-[({trans-4-[methyl(7H-pyrrolo[2,3-d]pyrimidin-4-yl)amino]cyclohexyl}methyl)-sulfonyl]piperidin-4-ol], the figures for the IC50 at JAK1, at JAK3 and at JAK2 were 9.18 nM, 342 nM and 34.2 nM, respectively.
On the same counts, the results for `CN(c1ncnc2[nH]ccc12)[C@H]1CC[C@H](CS(=O)(=O)N2CCCC(F)C2)CC1` (stereo partly drawn) [Example 10, N-(trans-4-{[(3-fluoro-piperidin-1-yl)sulfonyl]-methyl}cyclohexyl)-N-methyl-7H-pyrrolo[2,3-d]-pyrimidin-4-amine] are 5.3 nM, 234 nM and 26.2 nM.
On the same counts, the results for `CN(c1ncnc2[nH]ccc12)[C@H]1CC[C@H](CS(=O)(=O)N2CC[C@@H](O)[C@H](O)C2)CC1` [Example 12, (3R,4R)-1-[({trans-4-[methyl(7H-pyrrolo[2,3-d]pyrimidin-4-yl)amino]-cyclohexyl}methyl)sulfonyl]-piperidine-3,4-diol] are 4.28 nM, 119 nM and 11.8 nM.
In the same order, the values of `CN(c1ncnc2[nH]ccc12)[C@H]1CC[C@H](CS(=O)(=O)N2CC[C@@H](O)[C@@H](O)C2)CC1` [Example 13, (3S,4R)-1-[({trans-4-[methyl(7H-pyrrolo[2,3-d]pyrimidin-4-yl)amino]-cyclohexyl}methyl)sulfonyl]-piperidine-3,4-diol] are 6.99 nM, 275 nM and 32 nM.
Turning to `CN(c1ncnc2[nH]ccc12)[C@H]1CC[C@H](CS(=O)(=O)N2CCC[C@H](O)C2)CC1` [Example 14, (3S)-1-[({trans-4-[methyl-(7H-pyrrolo[2,3-d]-pyrimidin-4-yl)amino]-cyclohexyl}methyl)sulfonyl]-piperidin-3-ol], the IC50 at JAK1 worked out at 5.41 nM; at JAK3 it was 169 nM; at JAK2, 16.2 nM.
On the same counts, the results for `CN(c1ncnc2[nH]ccc12)[C@H]1CC[C@H](CS(=O)(=O)N2CCCC(COc3ccc(F)cc3)C2)CC1` (stereo partly drawn) [Example 15, N-{trans-4-[({3-[(4-fluoro-phenoxy)methyl]piperidin-1-yl}sulfonyl)methyl]-cyclohexyl}-N-methyl-7H-pyrrolo[2,3-d]pyrimidin-4-amine] are 5.91 nM, 10000 nM and 32 nM.
For `CN(c1ncnc2[nH]ccc12)[C@H]1CC[C@H](CS(=O)(=O)N2CCCC(C(=O)O)C2)CC1` (stereo partly drawn) [Example 16, 1-[({trans-4-[methyl(7H-pyrrolo[2,3-d]pyrimidin-4-yl)amino]cyclohexyl}methyl)-sulfonyl]piperidine-3-carboxylic acid], the IC50 on JAK1 worked out at 2.13 nM; at JAK3, 74.3 nM; at JAK2, 7.71 nM.
Consider `CCCS(=O)(=O)CC1CCCN(S(=O)(=O)C[C@H]2CC[C@H](N(C)c3ncnc4[nH]ccc34)CC2)C1` (stereo partly drawn) [Example 17, N-methyl-N-{trans-4-[({3-[(propylsulfonyl)methyl]-piperidin-1-yl}sulfonyl)-methyl]-cyclohexyl}-7H-pyrrolo[2,3-d]pyrimidin-4-amine], for which the IC50 turned out to be 6.06 nM at JAK1, 745 nM at JAK3 and 54.7 nM at JAK2.
On the same counts, the results for `Cc1nnc(C2CCCN(S(=O)(=O)C[C@H]3CC[C@H](N(C)c4ncnc5[nH]ccc45)CC3)C2)o1` (stereo partly drawn) [Example 18, N-methyl-N-[trans-4-({[3-(5-methyl-1,3,4-oxadiazol-2-yl)piperidin-1-yl]sulfonyl}methyl)-cyclohexyl]-7H-pyrrolo-[2,3-d]pyrimidin-4-amine] are 9.75 nM, 210 nM and 19.5 nM.
